Source: PMC11859905, “Flavonoids as Potential Modulators of Pancreatic Lipase Catalytic Activity” (Pharmaceutics, 2025)
Like-named read-outs stand apart in the source and are kept apart here. One block for each compound: values may come before it.

What was measured:
human pancreatic lipase = biological target: T1, human pancreatic lipase (Homo sapiens, UniProt P16233); experiment: In vitro assay using human pancreatic lipase (4-MUO hydrolysis, fluorometric); assay type: biochemical; settings: for inhibitory activity against HPL (in words): at the maximum concentration that could be tested; for IC50: human PL 2 U/mL, 4-MUO 0.05 mM, mean ± SEM;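 for all read-outs here: Read-out is the initial rate of fluorescent 4-MU release as HPL cleaves the 4-MUO substrate, a rate that scales with the amount of enzyme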
T1 construct: PL from the human pancreas (triacylglycerol acyl hydrolase, EC 3.1.1.3); from tissue; host or cells: human pancreas
T1 sequence (P16233 17-465): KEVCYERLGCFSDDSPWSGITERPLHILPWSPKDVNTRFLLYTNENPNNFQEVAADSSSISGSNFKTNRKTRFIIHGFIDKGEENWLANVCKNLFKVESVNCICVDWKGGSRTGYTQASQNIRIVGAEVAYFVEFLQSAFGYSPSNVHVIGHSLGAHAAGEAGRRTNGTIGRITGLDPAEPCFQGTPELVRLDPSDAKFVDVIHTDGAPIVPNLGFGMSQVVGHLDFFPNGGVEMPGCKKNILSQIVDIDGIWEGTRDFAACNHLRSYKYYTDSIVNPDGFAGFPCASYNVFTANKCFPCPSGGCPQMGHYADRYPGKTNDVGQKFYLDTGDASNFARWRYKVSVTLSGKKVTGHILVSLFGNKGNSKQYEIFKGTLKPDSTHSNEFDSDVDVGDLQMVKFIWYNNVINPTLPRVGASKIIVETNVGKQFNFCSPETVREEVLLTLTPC

[1] = biological target: T2, porcine pancreatic lipase (Sus scrofa, UniProt P00591); experiment: In vitro assay using porcine pancreatic lipase (4-MUO hydrolysis, fluorometric); settings: for inhibitory activity against PPL (in words): at the maximum concentration that could be tested;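 for all read-outs here: product 4-methylumbeliferone formation tracked fluorometrically, catalytic rate from RFU slope over the 10–30 min window, compounds checked beforehand for own fluorescence, at least three independent experiments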
T2 sequence (P00591 1-450): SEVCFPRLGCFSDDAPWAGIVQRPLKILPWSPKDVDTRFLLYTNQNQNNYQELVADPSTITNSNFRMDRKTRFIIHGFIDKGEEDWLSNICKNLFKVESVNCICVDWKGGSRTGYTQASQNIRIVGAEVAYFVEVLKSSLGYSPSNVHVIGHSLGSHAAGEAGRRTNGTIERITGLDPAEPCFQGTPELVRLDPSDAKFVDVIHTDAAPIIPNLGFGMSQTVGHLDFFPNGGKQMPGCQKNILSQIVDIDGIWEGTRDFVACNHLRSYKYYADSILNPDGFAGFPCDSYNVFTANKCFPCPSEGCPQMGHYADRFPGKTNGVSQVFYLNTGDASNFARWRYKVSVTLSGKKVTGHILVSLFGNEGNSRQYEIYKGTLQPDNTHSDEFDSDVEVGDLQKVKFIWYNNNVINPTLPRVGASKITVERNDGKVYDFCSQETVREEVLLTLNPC

[2] = biological target: T2, porcine pancreatic lipase; experiment: Inhibition kinetics of porcine pancreatic lipase (nonlinear regression, Solver); assay type: biochemical; parameters: compare it to the effects of the porcine pancreas (type II, EC 3.1.1.3); from tissue; host or cells: porcine pancreas (type II preparation); settings: porcine pancreatic lipase
[3] = at 50 μM, read-out: PL Inhibition (%) ± SEM, Human
[4] = read-out: PL Inhibition (%) ± SEM, Porcine
[5] = read-out: PL Inhibition (%) ± SEM, Human
[6] = read-out: PL Inhibition (%) ± SEM, Human, at 50 μM

Compound: C[C@@H]1O[C@@H](OC[C@H]2O[C@@H](Oc3c(-c4ccc(O)c(O)c4)oc4cc(O)cc(O)c4c3=O)[C@H](O)[C@@H](O)[C@@H]2O)[C@H](O)[C@H](O)[C@H]1O [Flavonoid 32, Rutin]
- inhibition at 50 µM (human pancreatic lipase; [3]): 34 ± 1%
- inhibitory activity against HPL (in words) (human pancreatic lipase): did not show significant inhibitory activity
- inhibitory activity against PPL (in words) [1]: did not show significant inhibitory activity
- inhibition at 50 µM [1, 4]: < 30%

Compound: O=c1c(O)c(-c2ccc(O)c(O)c2)oc2cc(O[C@@H]3O[C@H](CO)[C@@H](O)[C@H](O)[C@H]3O)cc(O)c12 [Flavonoid 33, Quercimeritrin]
- inhibition at 50 µM (human pancreatic lipase; [3]): < 30%
- inhibitory activity against HPL (in words) (human pancreatic lipase): did not show significant inhibitory activity
- inhibitory activity against PPL (in words) [1]: did not show significant inhibitory activity
- inhibition at 50 µM [1, 4]: < 30%

Compound: Oc1cc(O)c2c(c1)OC(c1cc(O)c(O)c(O)c1)C(O)C2 (single isomer, unassigned; (-)) [Flavonoid 40, (–)-Epigallocatechin]
- inhibition at 100 µM (human pancreatic lipase; [5]): < 30%
- inhibition at 100 µM [1, 4]: < 30%

Compound: O=c1c(OC2OC(CO)C(O)C(O)C2O)c(-c2ccc(OC3OC(CO)C(O)C(O)C3O)c(O)c2)oc2cc(O)cc(O)c12 (stereo not shown) [Flavonoid 35]
- inhibitory activity against HPL (in words) (human pancreatic lipase): did not show significant inhibitory activity
- inhibition at 50 µM (human pancreatic lipase; [6]): < 30%
- inhibitory activity against PPL (in words) [1]: did not show significant inhibitory activity
- inhibition at 50 µM [1, 4]: < 30%

Compound: O=c1cc(-c2ccccc2)oc2cc(O)ccc12 [Flavonoid 9]
- inhibition at 50 µM (human pancreatic lipase; [6]): < 30%
- inhibition at 50 µM [1, 4]: < 30%

Compound: O=c1c(O)c(-c2ccc(O)c(O)c2)oc2cc(O)cc(O)c12 [Flavonoid 27, Quercetin]
- inhibition at 75 µM (human pancreatic lipase; read-out: PL Inhibition (%) ± SEM, Human, at 75 μM): < 46%
- Inhibition Model [2]: Competitive
- Vmax ([2]; ± SEM, in µmol/min): 354 ± 3

Compound: O=c1c(O[C@@H]2O[C@H](CO)[C@@H](O)[C@H](O)[C@H]2O)c(-c2ccc(O)cc2)oc2cc(O)cc(O)c12 [Flavonoid 25, Astragalin]
- inhibition at 50 µM (human pancreatic lipase; [3]): 34 ± 1%
- inhibitory activity against HPL (in words) (human pancreatic lipase): did not show significant inhibitory activity
- inhibitory activity against PPL (in words) [1]: did not show significant inhibitory activity
- inhibition at 50 µM [1, 4]: < 30%

Compound: O=c1c(O)c(-c2ccc(O)cc2)oc2cc(OC3OC(CO)C(O)C(O)C3O)cc(O)c12 (stereo not shown) [Flavonoid 26, Populnin]
- inhibition at 100 µM (human pancreatic lipase; [5]): < 30%
- inhibitory activity against HPL (in words) (human pancreatic lipase): did not show significant inhibitory activity
- inhibitory activity against PPL (in words) [1]: did not show significant inhibitory activity
- inhibition at 100 µM [1, 4]: < 30%

Compound: Oc1cc(O)c2c(c1)O[C@H](c1ccc(O)c(O)c1)[C@H](O)C2 [Flavonoid 39, (–)-Epicatechin]
- inhibition at 100 µM (human pancreatic lipase; [5]): < 30%
- inhibition at 100 µM [1, 4]: < 30%

Compound: O=c1cc(-c2cccc(O)c2)oc2cc(O)ccc12 [Flavonoid 10]
- inhibition at 100 µM (human pancreatic lipase; [5]): < 30%
- inhibition at 100 µM [1, 4]: < 30%

Compound: O=c1c(OC2OC(CO)C(O)C(O)C2O)c(-c2ccc(O)c(O)c2)oc2cc(O)cc(O)c12 (stereo not shown) [Flavonoid 31]
- inhibition at 50 µM (human pancreatic lipase; [3]): < 30%
- inhibitory activity against HPL (in words) (human pancreatic lipase): did not show significant inhibitory activity
- inhibitory activity against PPL (in words) [1]: did not show significant inhibitory activity
- inhibition at 50 µM [1, 4]: < 30%

Compound: O=c1c(O)c(-c2ccc(O[C@@H]3O[C@H](CO)[C@@H](O)[C@H](O)[C@H]3O)c(O)c2)oc2cc(O)cc(O)c12 [Flavonoid 34, Spiraeoside]
- inhibition at 50 µM (human pancreatic lipase; [3]): < 30%
- inhibitory activity against HPL (in words) (human pancreatic lipase): did not show significant inhibitory activity
- inhibitory activity against PPL (in words) [1]: did not show significant inhibitory activity
- inhibition at 50 µM [1, 4]: < 30%

Compound: O=c1cc(-c2ccccc2)oc2cc(O)cc(O)c12 [Flavonoid 13, Chrysin]
- inhibition at 50 µM (human pancreatic lipase; [3]): < 30%
- inhibition at 50 µM [1, 4]: < 30%

Compound: O=c1c(O)c(-c2ccc(O)c(O)c2)oc2c(O)c(O)cc(O)c12 [Flavonoid 47, Gossypetin]
- inhibition at 50 µM (human pancreatic lipase; [6]): 37 ± 1%
- inhibition at 50 µM [1, 4]: 36 ± 3%

Compound: O=c1c(O)c(-c2ccc(O)c(O)c2)oc2c(O[C@@H]3O[C@H](CO)[C@@H](O)[C@H](O)[C@H]3O)c(O)cc(O)c12 [Flavonoid 48, Gossypin]
- inhibition at 12.5 µM (human pancreatic lipase; at 12.5 μM, read-out: PL Inhibition (%) ± SEM, Human): < 30%
- inhibitory activity against HPL (in words) (human pancreatic lipase): did not show significant inhibitory activity
- inhibitory activity against PPL (in words) [1]: did not show significant inhibitory activity
- inhibition at 12.5 µM [1, 4]: < 30%

Compound: O=c1cc(-c2cccc(O)c2)oc2cc(O)cc(O)c12 [Flavonoid 14]
- IC50 (human pancreatic lipase): 54 ± 5 µM
- IC50 [1]: 73 ± 7 µM

Compound: O=c1cc(-c2ccc(O)c(O)c2)oc2cccc(O)c12 [Flavonoid 8]
- inhibition at 50 µM (human pancreatic lipase; [5]): < 30%
- inhibition at 50 µM [1, 4]: 46 ± 2%

The next lines start with results.

- inhibition at 25 µM (human pancreatic lipase; [5]): < 30%
- inhibition at 25 µM [1, 4]: < 30%
Compound: O=c1cc(-c2ccc(O)cc2)oc2cccc(O)c12 [Flavonoid 7]

- inhibition at 100 µM (human pancreatic lipase; [5]): < 30%
- inhibition at 100 µM [1, 4]: < 30%
Compound: O=c1cc(-c2ccc(O)c(O)c2)oc2ccccc12 [Flavonoid 4]

- IC50 (human pancreatic lipase): 16.4 ± 0.7 µM
- IC50 [1]: 10.1 ± 0.4 µM
Compound: CCCCCCc1c(-c2ccc(O)c(O)c2)oc2cc(O)cc(O)c2c1=O [Flavonoid 29]

- inhibition at 50 µM (human pancreatic lipase; [3]): < 30%
- inhibition at 50 µM [1, 4]: < 30%
Compound: O=c1cc(-c2ccccc2)oc2cccc(O)c12 [Flavonoid 5]

- inhibition at 50 µM (human pancreatic lipase; [3]): < 30%
- inhibition at 50 µM [1, 4]: < 30%
Compound: O=c1cc(-c2ccc(O)c(O)c2)oc2c(O)c(O)ccc12 [Flavonoid 43]

- inhibition at 25 µM (human pancreatic lipase; [5]): < 30%
- inhibition at 25 µM [1, 4]: < 30%
Compound: O=c1c(O)c(-c2ccc(O)c(O)c2)oc2c(O)c(O)ccc12 [Flavonoid 45, Melanoxetin]

- IC50 (human pancreatic lipase): 7 ± 1 µM
- IC50 [1]: 20 ± 3 µM
Compound: O=c1cc(-c2cc(O)c(O)c(O)c2)oc2cccc(O)c12 [Flavonoid 36]

- IC50 (human pancreatic lipase): 42 ± 2 µM
- IC50 [1]: 13 ± 1 µM
Compound: CCCCc1c(-c2ccc(O)c(O)c2)oc2cc(O)cc(O)c2c1=O [Flavonoid 28]

- IC50 (human pancreatic lipase): 75 ± 2 µM
- IC50 [1]: 41 ± 1 µM
Compound: O=c1cc(-c2ccc(O)cc2)oc2cc(O)cc(O)c12 [Flavonoid 15, Apigenin]

- inhibition at 100 µM (human pancreatic lipase; [5]): < 30%
- inhibition at 100 µM [1, 4]: < 30%
Compound: O=c1cc(-c2ccccc2)oc2ccccc12 [Flavonoid 1, Flavone]

- inhibition at 50 µM (human pancreatic lipase; [3]): 44 ± 5%
- inhibition at 50 µM [1, 4]: 41 ± 4%
Compound: O=c1c(O)c(-c2ccc(O)c(O)c2)oc2ccccc12 [Flavonoid 18]
- inhibitory activity against HPL (in words) (human pancreatic lipase): did not show significant inhibitory activity
- inhibitory activity against PPL (in words) [1]: did not show significant inhibitory activity

- inhibition at 50 µM (human pancreatic lipase; [3]): 39 ± 3%
- inhibition at 50 µM [1, 4]: 46 ± 4%
Compound: O=c1c(O)c(-c2ccc(O)cc2)oc2c(O)c(O)cc(O)c12 [Flavonoid 46, Herbacetin]

- inhibition at 50 µM (human pancreatic lipase; [3]): < 30%
- inhibition at 50 µM [1, 4]: 41 ± 1%
Compound: O=c1c(O)c(-c2ccccc2)oc2cc(O)cc(O)c12 [Flavonoid 23, Galangin]

- IC50 (human pancreatic lipase): 79 ± 3 µM
- IC50 [1]: 98 ± 9 µM
Compound: O=c1cc(-c2ccccc2)oc2c(O)c(O)cc(O)c12 [Flavonoid 42, Norwogonin]

- inhibition at 100 µM (human pancreatic lipase; [5]): < 30%
- inhibition at 100 µM [1, 4]: < 30%
Compound: O=c1cc(-c2cccc(O)c2)oc2ccccc12 [Flavonoid 2]

- inhibition at 50 µM (human pancreatic lipase; [3]): < 30%
- inhibition at 50 µM [1, 4]: 42 ± 2%
Compound: O=c1c(O)c(-c2ccc(O)cc2)oc2c(O)c(O)ccc12 [Flavonoid 44]

- inhibition at 100 µM (human pancreatic lipase; [5]): < 30%
- inhibition at 100 µM [1, 4]: < 30%
Compound: O=c1c(-c2ccc(O)cc2)coc2cc(O)cc(O)c12 [Flavonoid 17, Genistein]
- inhibitory activity against HPL (in words) (human pancreatic lipase): did not show significant inhibitory activity
- inhibitory activity against PPL (in words) [1]: did not show significant inhibitory activity

- inhibition at 100 µM (human pancreatic lipase; [5]): 39 ± 3%
- IC50 ([1]; read-out: IC50 (μM) ± SEM, Porcine, porcine PL 0.04 mg/mL, 4-MUO 0.05 mM, mean ± SEM): 79 ± 6 µM
Compound: O=c1c(O)c(-c2ccc(O)cc2)oc2cc(O)cc(O)c12 [Flavonoid 24, Kaempferol]

- inhibition at 25 µM (human pancreatic lipase; [5]): < 30%
- inhibition at 25 µM [1, 4]: < 30%
Compound: O=c1cc(-c2ccc(O)cc2)oc2ccccc12 [Flavonoid 3]

- inhibition at 25 µM (human pancreatic lipase; [5]): 32.3 ± 0.1%
- inhibition at 25 µM [1, 4]: < 30%
Compound: O=c1cc(-c2cccc(O)c2)oc2cccc(O)c12 [Flavonoid 6]

- inhibition at 50 µM (human pancreatic lipase; [3]): 54 ± 2%
- IC50 [1]: 32 ± 2 µM
Compound: O=c1cc(-c2ccc(O)c(O)c2)oc2cc(O)cc(O)c12 [Flavonoid 16, Luteolin]
